Assay results: PubChem BioAssay (NCI)
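GI50 marks 50% less growth. TGI is the concentration that stops growth completely.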

Legend:
Assay in all cases: DTP human tumour cell line panel, 384-well format; in the data active = GI50 below about 0.43 µM; inactive = the rest
SK-OV-3 ovarian = tested on: SK-OV-3 ovarian
SF-268 CNS = tested on: SF-268 CNS
MCF7 breast = tested on: MCF7 breast
CAKI-1 renal = tested on: CAKI-1 renal
PC-3 prostate = tested on: PC-3 prostate
TK-10 renal = tested on: TK-10 renal
SNB-19 CNS = tested on: SNB-19 CNS
SF-539 CNS = tested on: SF-539 CNS
UO-31 renal = tested on: UO-31 renal
SK-MEL-5 melanoma = tested on: SK-MEL-5 melanoma
BT-549 breast = tested on: BT-549 breast
HS 578T breast = tested on: HS 578T breast
MOLT-4 leukemia = tested on: MOLT-4 leukemia
HCC-2998 colon = tested on: HCC-2998 colon
KM12 colon = tested on: KM12 colon
HOP-62 NSCLC = tested on: HOP-62 NSCLC
HOP-92 NSCLC = tested on: HOP-92 NSCLC
RPMI-8226 leukemia = tested on: RPMI-8226 leukemia
A549 NSCLC = tested on: A549 NSCLC
M14 melanoma = tested on: M14 melanoma
SNB-75 CNS = tested on: SNB-75 CNS
OVCAR-4 ovarian = tested on: OVCAR-4 ovarian
SF-295 CNS = tested on: SF-295 CNS
K-562 leukemia = tested on: K-562 leukemia
ACHN renal = tested on: ACHN renal
OVCAR-8 ovarian = tested on: OVCAR-8 ovarian
OVCAR-5 ovarian = tested on: OVCAR-5 ovarian
MDA-MB-468 breast = tested on: MDA-MB-468 breast
SW-620 colon = tested on: SW-620 colon
HL-60(TB) leukemia = tested on: HL-60(TB) leukemia
UACC-257 melanoma = tested on: UACC-257 melanoma
RXF 393 renal = tested on: RXF 393 renal
U251 glioblastoma = tested on: U251 glioblastoma
HCT-116 colon = tested on: HCT-116 colon
IGROV1 ovarian = tested on: IGROV1 ovarian
SN12C renal = tested on: SN12C renal
786-0 renal = tested on: 786-0 renal
MDA-MB-435 melanoma = tested on: MDA-MB-435 melanoma
HCT-15 colon = tested on: HCT-15 colon
CCRF-CEM leukemia = tested on: CCRF-CEM leukemia
NCI-H322M lung = tested on: NCI-H322M lung
T-47D breast = tested on: T-47D breast
OVCAR-3 ovarian = tested on: OVCAR-3 ovarian
NCI-H23 lung = tested on: NCI-H23 lung
SK-MEL-28 melanoma = tested on: SK-MEL-28 melanoma
MALME-3M melanoma = tested on: MALME-3M melanoma
HT29 colon = tested on: HT29 colon
LOX IMVI melanoma = tested on: LOX IMVI melanoma
NCI-H226 lung = tested on: NCI-H226 lung
DU-145 prostate = tested on: DU-145 prostate
EKVX NSCLC = tested on: EKVX NSCLC
NCI-H460 NSCLC = tested on: NCI-H460 NSCLC
UACC-62 melanoma = tested on: UACC-62 melanoma
A498 renal = tested on: A498 renal
NCI-H522 lung = tested on: NCI-H522 lung
NCI/ADR-RES ovarian = tested on: NCI/ADR-RES ovarian
MDA-MB-231 breast = tested on: MDA-MB-231 breast
COLO 205 colon = tested on: COLO 205 colon

CN(C(=O)c1ccc(F)cc1C(F)(F)F)C1CCN(c2nnc(-c3ccnn3C)c3ccccc23)CC1
74.4 µM: TGI (RXF 393 renal)
44.8 µM: TGI (CCRF-CEM leukemia)
21.2 µM: TGI (SK-MEL-5 melanoma)
21.3 µM: TGI (MDA-MB-468 breast)
26.4 µM: TGI (MOLT-4 leukemia)
43.9 µM: TGI (HL-60(TB) leukemia)
12.5 µM: TGI (T-47D breast)
> 100 µM: TGI (SK-OV-3 ovarian) | TGI (MCF7 breast) | TGI (CAKI-1 renal) | TGI (PC-3 prostate) | TGI (TK-10 renal) | TGI (SNB-19 CNS) | TGI (SF-539 CNS) | TGI (UO-31 renal) | TGI (BT-549 breast) | TGI (HS 578T breast) | TGI (HCC-2998 colon) | TGI (KM12 colon) | TGI (HOP-62 NSCLC) | TGI (HOP-92 NSCLC) | TGI (RPMI-8226 leukemia) | TGI (A549 NSCLC) | TGI (M14 melanoma) | TGI (SNB-75 CNS) | TGI (OVCAR-4 ovarian) | TGI (SF-295 CNS) | TGI (K-562 leukemia) | TGI (ACHN renal) | TGI (OVCAR-8 ovarian) | TGI (OVCAR-5 ovarian) | TGI (SW-620 colon) | TGI (UACC-257 melanoma) | TGI (U251 glioblastoma) | TGI (HCT-116 colon) | TGI (IGROV1 ovarian) | TGI (SN12C renal) | TGI (786-0 renal) | TGI (MDA-MB-435 melanoma) | TGI (HCT-15 colon) | TGI (NCI-H322M lung) | TGI (OVCAR-3 ovarian) | TGI (NCI-H23 lung) | TGI (SK-MEL-28 melanoma) | TGI (MALME-3M melanoma) | TGI (HT29 colon) | TGI (LOX IMVI melanoma) | TGI (NCI-H226 lung) | TGI (DU-145 prostate) | TGI (EKVX NSCLC) | TGI (NCI-H460 NSCLC) | TGI (UACC-62 melanoma) | TGI (A498 renal) | TGI (NCI-H522 lung) | TGI (NCI/ADR-RES ovarian) | TGI (MDA-MB-231 breast) | TGI (COLO 205 colon)
inactive: GI50 (SK-OV-3 ovarian) 89.2 µM | GI50 (SF-268 CNS) 13.9 µM | GI50 (MCF7 breast) 29.9 µM | GI50 (CAKI-1 renal) 47.6 µM | GI50 (PC-3 prostate) 44.5 µM | GI50 (TK-10 renal) > 100 µM | GI50 (SNB-19 CNS) 89.5 µM | GI50 (SF-539 CNS) > 100 µM | GI50 (UO-31 renal) 58.7 µM | GI50 (SK-MEL-5 melanoma) 8.15 µM | GI50 (BT-549 breast) 26.7 µM | GI50 (HS 578T breast) > 100 µM | GI50 (MOLT-4 leukemia) 13 µM | GI50 (HCC-2998 colon) 22.4 µM | GI50 (KM12 colon) > 100 µM | GI50 (HOP-62 NSCLC) 13.9 µM | GI50 (HOP-92 NSCLC) 48.3 µM | GI50 (RPMI-8226 leukemia) 22.5 µM | GI50 (A549 NSCLC) 44.8 µM | GI50 (M14 melanoma) 58.1 µM | GI50 (SNB-75 CNS) 58.5 µM | GI50 (OVCAR-4 ovarian) 67.4 µM | GI50 (SF-295 CNS) > 100 µM | GI50 (K-562 leukemia) 15.1 µM | GI50 (ACHN renal) > 100 µM | GI50 (OVCAR-8 ovarian) 34.7 µM | GI50 (OVCAR-5 ovarian) > 100 µM | GI50 (MDA-MB-468 breast) 3.8 µM | GI50 (SW-620 colon) > 100 µM | GI50 (HL-60(TB) leukemia) 18.7 µM | GI50 (UACC-257 melanoma) 32 µM | GI50 (RXF 393 renal) 20.9 µM | GI50 (U251 glioblastoma) 54.3 µM | GI50 (HCT-116 colon) 47.7 µM | GI50 (IGROV1 ovarian) > 100 µM | GI50 (SN12C renal) > 100 µM | GI50 ([…]-0 renal) > 100 µM | GI50 (MDA-MB-435 melanoma) 63.1 µM | GI50 (HCT-15 colon) 44.4 µM | GI50 (CCRF-CEM leukemia) 12.9 µM | GI50 (NCI-H322M lung) 28 µM | GI50 (T-47D breast) 2.73 µM | GI50 (OVCAR-3 ovarian) 85.6 µM | GI50 (NCI-H23 lung) 30.1 µM | GI50 (SK-MEL-28 melanoma) > 100 µM | GI50 (MALME-3M melanoma) 65 µM | GI50 (HT29 colon) 76.6 µM | GI50 (LOX IMVI melanoma) 46.3 µM | GI50 (NCI-H226 lung) 32.1 µM | GI50 (DU-145 prostate) 86.2 µM | GI50 (EKVX NSCLC) 21.5 µM | GI50 (NCI-H460 NSCLC) 35.7 µM | GI50 (UACC-62 melanoma) > 100 µM | GI50 (A498 renal) 46.7 µM | GI50 (NCI-H522 lung) 35.5 µM | GI50 (NCI/ADR-RES ovarian) 33.3 µM | GI50 (MDA-MB-231 breast) 47 µM | GI50 (COLO 205 colon) 42.9 µM
71 µM: TGI (SF-268 CNS)
